Assay results reported in PMC7697191, “Identification of Novel Influenza Polymerase PB2 Inhibitors Using a Cascade Docking Virtual Screening Approach” (Molecules, 2020).

How the values were obtained:
H1N1 PB2 CBD = H1N1 PB2 CBD (Influenza A virus, UniProt P03427); assay: SPR binding assay on immobilized H1N1 PB2 CBD; parameters: species or system influenza A/WSN/1933 (H1N1); details: Biacore T200, CM5 chip, affinity binding model
in vitro = details: dog
[1] = tested on: A/Hong Kong/8/68 (HK/68, H3N2); format: cell-based; details: MDCK cells, CPE inhibition

H1N1 PB2 CBD, sequence (P03427 318-486 limits assumed): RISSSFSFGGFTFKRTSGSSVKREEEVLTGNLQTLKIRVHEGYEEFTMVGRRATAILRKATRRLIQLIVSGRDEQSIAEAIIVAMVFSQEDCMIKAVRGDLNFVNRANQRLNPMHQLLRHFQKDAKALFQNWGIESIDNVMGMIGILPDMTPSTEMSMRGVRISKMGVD

SMILES | Kd (H1N1 PB2 CBD) [nM] | CC50 at 72 h (in vitro) [nM] | activity against the A/Hong Kong/8/68 (HK/68, H3N2) strain, in words [1]
Cc1c(-c2ccccc2F)[nH]c2ccc(CNC(=O)CCc3cc(O)no3)cc12 [11C5] | 2260 | > 100000 | 
Cc1cc(CN2CCOc3c(O)cc(-c4ccccc4Cl)cc3C2)on1 [11C6] | 1700 | > 100000 | 
O=C(NCc1nc(C2CCCCC2)no1)c1cc(-c2ccccc2F)n[nH]1 [11C8] | 6160 | > 100000 | 
c1csc(CNc2nc3nonc3nc2NCCCN2CCOCC2)c1 [11D2] | 210 | > 100000 | 
C=CCn1cc(CNCc2noc(-c3ccc4c(c3)OCO4)n2)c(C)n1 [11D4] | 1870 | > 100000 | 
c1cc(Cn2ccnc2-c2nc3c(s2)CCCC3)cc(-c2nnn[nH]2)c1 [12B1] | 6770 | > 100000 | 
C=CCn1cc(-c2cc(-c3ccc(C(=O)O)cc3)[nH]c(=N)c2C#N)cn1 [12C5] | 2440 | > 100000 | 
NS(=O)(=O)CCCC(=O)NCc1ccc2[nH]c3c(c2c1)CCCCCC3 [13D7] | 1130 | > 100000 | 
CCSc1ncc(-c2cc(-c3c(C)nn(C)c3C)nc(N)c2C#N)cn1 [21A5] | 540 | > 100000 | 
Cc1cccnc1CCNc1nc2nonc2nc1NCc1cccs1 [21B1] | 1950 | > 100000 | no activity
CCC(CC)O[C@@H]1C=C(C(=O)O)C[C@H](N)[C@H]1NC(C)=O [OC, Oseltamivir carboxylate, reference compound] |  | > 100000 | 
O=C(O)[C@H]1C2CCC(CC2)[C@@H]1Nc1nc(-c2c[nH]c3ncc(F)cc23)ncc1F [VX-787, reference compound] | 54 | > 100000 | 
